From paper PMC3373380 (BMC Pharmacology, 2012)

Key:
human DPP9 = target: T1, human DPP9 (Homo sapiens, UniProt Q86TI2); assay: Steady-state inhibition of isolated cloned DPP9 at 37°C (gly-pro-pNA); format: biochemical
T1 construct: made in house
Description: (§1) All solutions were preheated to 37°C. Inhibitors were preincubated with enzyme for 40 minutes prior to assay initiation. […] Softmax Pro software from Molecular Devices (Sunnyvale, CA) was used to obtain the initial slope of the reaction in each well, and the fits were inspected to insure that the reactions were linear to a correlation coefficient of 0.99. An Excel template with XLFit (IDBS, Guildford, U.K.) was used for determination of the IC50 for inhibition at each substrate concentration. […] Therefore, IC50 was then converted to Ki assuming competitive inhibition according to:
(§2) The calculated Ki values for competitive inhibition at each substrate concentration were averaged and reported. DPP8 and DPP9 were tested under identical conditions. The in vitro assays were also used to determine substrate Km, by varying substrate concentration across an appropriate range. Km was calculated using GraFit software (Erithacus, Surrey U.K.)

cynomolgus monkey DPP4 = target: T2, cynomolgus monkey DPP4 (UniProt A0A075TEP6); assay: Steady-state inhibition of isolated cloned DPP4 at 37°C (gly-pro-pNA); format: biochemical; details: mean ± SD (n)
T2 construct: made in house
T2 sequence (A0A075TEP6 1-766): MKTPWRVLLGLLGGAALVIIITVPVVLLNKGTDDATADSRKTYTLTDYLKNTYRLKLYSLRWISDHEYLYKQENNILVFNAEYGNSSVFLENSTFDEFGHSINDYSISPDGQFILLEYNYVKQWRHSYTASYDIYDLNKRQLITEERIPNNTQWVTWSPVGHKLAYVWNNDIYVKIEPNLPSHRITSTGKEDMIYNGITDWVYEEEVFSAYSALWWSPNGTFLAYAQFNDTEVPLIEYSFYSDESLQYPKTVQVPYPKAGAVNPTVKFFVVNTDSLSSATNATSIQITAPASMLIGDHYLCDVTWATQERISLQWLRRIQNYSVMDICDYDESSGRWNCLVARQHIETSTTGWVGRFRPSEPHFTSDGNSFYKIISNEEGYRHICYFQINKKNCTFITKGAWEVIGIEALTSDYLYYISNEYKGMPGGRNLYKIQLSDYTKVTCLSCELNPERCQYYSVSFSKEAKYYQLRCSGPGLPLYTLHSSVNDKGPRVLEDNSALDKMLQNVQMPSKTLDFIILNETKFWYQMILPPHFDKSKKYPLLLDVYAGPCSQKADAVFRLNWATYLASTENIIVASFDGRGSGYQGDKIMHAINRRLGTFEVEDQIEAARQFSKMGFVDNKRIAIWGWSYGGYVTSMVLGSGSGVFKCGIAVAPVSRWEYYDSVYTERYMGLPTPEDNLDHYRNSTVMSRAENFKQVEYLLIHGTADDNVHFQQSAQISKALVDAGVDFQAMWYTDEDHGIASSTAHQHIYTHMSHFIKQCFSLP
Description: (§3) All solutions were preheated to 37°C.
(§4) DPP8 and DPP9 were tested under identical conditions.

cynomolgus monkey DPP9 = cynomolgus monkey DPP9 (Macaca fascicularis, UniProt A0A2K5TQ54); assay: Steady-state inhibition of isolated cloned DPP9 at 37°C (gly-pro-pNA); format: biochemical; details: mean ± SD (n)
Chain of cynomolgus monkey DPP9 (A0A2K5TQ54 156-951): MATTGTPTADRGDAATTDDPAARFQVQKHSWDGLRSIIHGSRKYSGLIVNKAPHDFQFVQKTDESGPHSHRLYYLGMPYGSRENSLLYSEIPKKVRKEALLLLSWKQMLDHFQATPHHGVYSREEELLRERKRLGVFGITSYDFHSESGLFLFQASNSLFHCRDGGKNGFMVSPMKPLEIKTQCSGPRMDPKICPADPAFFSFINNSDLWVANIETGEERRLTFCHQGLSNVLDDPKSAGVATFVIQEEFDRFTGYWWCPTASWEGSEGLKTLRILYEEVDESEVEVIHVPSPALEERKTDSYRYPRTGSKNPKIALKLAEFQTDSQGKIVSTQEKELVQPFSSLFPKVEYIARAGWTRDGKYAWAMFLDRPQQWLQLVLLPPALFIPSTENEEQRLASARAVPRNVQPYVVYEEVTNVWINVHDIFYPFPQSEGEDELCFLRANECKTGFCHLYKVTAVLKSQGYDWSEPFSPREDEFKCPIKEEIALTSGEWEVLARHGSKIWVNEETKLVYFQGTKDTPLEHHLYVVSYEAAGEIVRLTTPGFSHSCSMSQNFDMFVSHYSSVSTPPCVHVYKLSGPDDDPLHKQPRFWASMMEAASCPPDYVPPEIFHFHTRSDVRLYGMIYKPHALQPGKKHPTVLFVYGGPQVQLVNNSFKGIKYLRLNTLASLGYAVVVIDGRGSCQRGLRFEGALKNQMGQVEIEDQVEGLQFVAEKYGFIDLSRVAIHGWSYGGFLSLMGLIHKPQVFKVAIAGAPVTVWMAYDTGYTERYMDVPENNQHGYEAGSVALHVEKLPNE
Description: as §3, §4

cynomolgus monkey DPP8 = cynomolgus monkey DPP8 (Macaca fascicularis, UniProt A0A2K5VHB7); assay: Steady-state inhibition of isolated cloned DPP8 at 37°C (gly-pro-pNA); format: biochemical; details: mean ± SD (n)
Chain of cynomolgus monkey DPP8 (A0A2K5VHB7 1-898): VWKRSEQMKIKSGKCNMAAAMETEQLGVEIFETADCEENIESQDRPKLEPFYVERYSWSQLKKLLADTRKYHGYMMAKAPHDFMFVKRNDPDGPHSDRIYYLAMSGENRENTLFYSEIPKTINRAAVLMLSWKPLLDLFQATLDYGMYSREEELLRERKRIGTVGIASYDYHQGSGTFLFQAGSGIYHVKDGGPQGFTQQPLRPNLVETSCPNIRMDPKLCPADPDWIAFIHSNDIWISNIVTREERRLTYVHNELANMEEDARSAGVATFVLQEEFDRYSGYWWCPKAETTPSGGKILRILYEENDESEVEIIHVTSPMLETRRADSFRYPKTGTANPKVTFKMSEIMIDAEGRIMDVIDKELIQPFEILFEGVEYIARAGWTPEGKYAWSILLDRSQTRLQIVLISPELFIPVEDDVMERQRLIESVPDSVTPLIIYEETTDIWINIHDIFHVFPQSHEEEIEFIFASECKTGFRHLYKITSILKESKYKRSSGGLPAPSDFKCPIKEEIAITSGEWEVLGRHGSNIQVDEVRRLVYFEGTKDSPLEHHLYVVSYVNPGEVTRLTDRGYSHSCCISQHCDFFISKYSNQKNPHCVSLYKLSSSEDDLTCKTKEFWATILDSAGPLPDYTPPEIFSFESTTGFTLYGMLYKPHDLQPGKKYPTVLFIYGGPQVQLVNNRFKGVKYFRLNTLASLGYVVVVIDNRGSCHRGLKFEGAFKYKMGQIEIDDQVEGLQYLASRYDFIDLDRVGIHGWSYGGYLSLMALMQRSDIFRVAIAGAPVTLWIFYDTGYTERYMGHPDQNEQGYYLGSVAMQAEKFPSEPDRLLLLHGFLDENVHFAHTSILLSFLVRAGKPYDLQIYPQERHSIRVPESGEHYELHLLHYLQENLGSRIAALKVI
Description: as §3, §4

human DPP8 = target: T3, human DPP8 (Homo sapiens, UniProt Q6V1X1); assay: as above; format: biochemical
T3 construct: made in house
T3 sequence (Q6V1X1 whole entry): as the sequence (A0A2K5VHB7 1-898) above, with V1M, M357I, S605P, L609P, D823N counted along it
Description: as §1, §2

plasma DPP activity [1] = assay: Cynomolgus monkey ex vivo plasma DPP inhibition, ala-pro-AFC assay; format: in vivo; details: cynomolgus monkeys, single oral doses, 24 hours post dose
Description: (§5) Male and female cynomolgus monkeys (Charles River BRF, Houston, TX), were housed in an AAALAC-accredited facility (on a 12-hour light/dark cycle) in stainless-steel cages. They had access to purified tap water ad libitum and were fed Harlan Diet 2050 C (Certified 20% protein primate diet). […]. Doses were administered once weekly using a crossover design such that no monkeys received the same dose twice. For the ex vivo cynomolgus monkey assays, blood samples (approximately 0.5 ml) were collected prior to dosing and 1, 2, 4, 6, 8, and 24 hours post dosing in tubes containing K2EDTA. Tubes were inverted several times to ensure mixing, and placed on ice. Samples were centrifuged at 5000 rpm for 10 minutes at 4°C for plasma isolation. Plasma was stored at -20°C until analyzed for DPP activity. No difference in DPP inhibition was noted between males and females and so data were combined for analyses.
(§6) This procedure produced a 3-fold dilution of plasma.

[2] = target: cynomolgus monkey plasma DPP activity (Macaca fascicularis, UniProt A0A2K5VXJ1); assay: Ala-pro-AFC plasma DPP inhibition assay in vitro; format: biochemical
Chain of cynomolgus monkey plasma DPP activity (A0A2K5VXJ1 39-766): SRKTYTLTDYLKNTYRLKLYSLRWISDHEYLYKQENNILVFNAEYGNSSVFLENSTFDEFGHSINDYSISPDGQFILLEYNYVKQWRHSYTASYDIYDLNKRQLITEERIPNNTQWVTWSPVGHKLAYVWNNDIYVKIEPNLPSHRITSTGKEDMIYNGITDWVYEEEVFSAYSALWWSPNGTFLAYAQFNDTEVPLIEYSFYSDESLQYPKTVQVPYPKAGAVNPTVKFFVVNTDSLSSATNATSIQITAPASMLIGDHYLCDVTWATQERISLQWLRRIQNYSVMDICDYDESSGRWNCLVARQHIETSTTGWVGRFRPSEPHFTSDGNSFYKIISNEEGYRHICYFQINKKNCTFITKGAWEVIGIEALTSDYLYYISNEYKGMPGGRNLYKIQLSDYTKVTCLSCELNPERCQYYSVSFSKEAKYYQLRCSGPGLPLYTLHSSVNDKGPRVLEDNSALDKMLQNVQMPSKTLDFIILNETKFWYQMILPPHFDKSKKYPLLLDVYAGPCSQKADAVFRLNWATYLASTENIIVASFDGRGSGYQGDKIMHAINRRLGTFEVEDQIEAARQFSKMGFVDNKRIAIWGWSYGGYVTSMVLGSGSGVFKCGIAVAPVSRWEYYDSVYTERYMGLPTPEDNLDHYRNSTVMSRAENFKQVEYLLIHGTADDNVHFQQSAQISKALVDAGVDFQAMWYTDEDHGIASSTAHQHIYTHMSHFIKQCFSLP
From the text: as §6

plasma DPP activity [3] = assay: Cynomolgus monkey ex vivo plasma DPP inhibition, gly-pro-pNA assay; format: in vivo; details: cynomolgus monkeys, single oral doses, 24 hours post dose, same samples
Description: as §5
This assay was reported by Merck as used in their clinical trials, using gly-pro-pNA as substrate. […] Activity, the rate of release of free pNA from the pseudo-substrate, was assayed at 30°C, using a Spectramax 340 plate reader ([…]) with rate determining software. Absorbance at 390 nm was measured. Results were expressed as arbitrary units because standard pNA curves were not run for all experiments. The extent of DPP inhibition and IC50 values were calculated as described above.

[4] = human, 37°C, gly-pro-pNA, mean ± SD (n)

T1 sequence (Q86TI2 whole entry): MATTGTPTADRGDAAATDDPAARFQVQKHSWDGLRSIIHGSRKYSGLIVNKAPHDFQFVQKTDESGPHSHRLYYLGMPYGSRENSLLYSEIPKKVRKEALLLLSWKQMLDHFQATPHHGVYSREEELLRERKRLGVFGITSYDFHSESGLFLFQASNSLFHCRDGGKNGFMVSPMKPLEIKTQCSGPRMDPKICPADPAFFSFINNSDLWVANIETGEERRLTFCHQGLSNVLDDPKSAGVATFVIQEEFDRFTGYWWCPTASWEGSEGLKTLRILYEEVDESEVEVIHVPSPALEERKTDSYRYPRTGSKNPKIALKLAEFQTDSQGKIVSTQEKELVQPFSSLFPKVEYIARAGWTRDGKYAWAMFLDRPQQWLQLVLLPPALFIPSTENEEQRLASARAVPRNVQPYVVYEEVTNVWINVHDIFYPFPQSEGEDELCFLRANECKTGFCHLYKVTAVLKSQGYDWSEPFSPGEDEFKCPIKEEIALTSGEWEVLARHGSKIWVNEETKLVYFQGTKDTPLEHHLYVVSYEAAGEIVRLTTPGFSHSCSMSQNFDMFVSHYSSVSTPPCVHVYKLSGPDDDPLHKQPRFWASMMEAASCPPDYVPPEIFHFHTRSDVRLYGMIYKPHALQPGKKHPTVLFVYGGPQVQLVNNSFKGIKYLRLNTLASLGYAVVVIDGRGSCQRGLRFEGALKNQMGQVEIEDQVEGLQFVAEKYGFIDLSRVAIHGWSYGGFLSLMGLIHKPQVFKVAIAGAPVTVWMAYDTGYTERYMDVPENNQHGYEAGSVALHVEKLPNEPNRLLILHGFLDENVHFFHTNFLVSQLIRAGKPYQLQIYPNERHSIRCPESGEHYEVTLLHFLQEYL

N#C[C@@H]1C[C@@H]2C[C@@H]2N1C(=O)[C@@H](N)C12CC3CC(O)(CC(O)(C3)C1)C2 [5-hydroxysaxagliptin]
slow binding kinetics to DPP9 (human DPP9): Neither saxagliptin nor 5-hydroxysaxagliptin exhibited slow binding kinetics
Ki (human DPP9; [4]): 423 ± 64 nM
Ki (cynomolgus monkey DPP4): 2.9 ± 1.1 nM
Ki (cynomolgus monkey DPP9): 323 ± 60 nM
Ki (cynomolgus monkey DPP8): 2060 ± 658 nM
slow binding kinetics to DPP8 (human DPP8): Neither saxagliptin nor 5-hydroxysaxagliptin exhibited slow binding kinetics
Ki (human DPP8; [4]): 2500 ± 727 nM

N#C[C@@H]1C[C@@H]2C[C@@H]2N1C(=O)[C@@H](N)C12CC3CC(CC(O)(C3)C1)C2 [Saxagliptin, (1 S,3 S,5 S)-2-[(2 S)-2-Amino-2-(3-hydroxytricyclo[3.3.1.1^3,7]dec-1-yl)acetyl]-2-azabicyclo[3.1.0]hexane-3-carbonitrile, monohydrate]
Ki (cynomolgus monkey DPP9): 61 ± 5 nM
plasma DPP inhibition ex vivo (plasma DPP activity [1]): close to maximal inhibition of the inhibitable plasma DPP activity at its highest doses
Ki (cynomolgus monkey DPP8): 390 ± 82 nM

N[C@@H](CC(=O)N1CCn2c(nnc2C(F)(F)F)C1)Cc1cc(F)c(F)cc1F [Sitagliptin, reference compound]
Ki (cynomolgus monkey DPP9): 65800 ± 7970 nM
increase of IC50 in the ala-pro-AFC assay compared to the gly-pro-pNA assay [2]: 26 fold
plasma DPP inhibition ex vivo (plasma DPP activity [1]): no effect on plasma DPP activity at any of the doses
plasma DPP inhibition ex vivo (plasma DPP activity [3]): statistically significant inhibition of plasma DPP activity at 3, 10 and 40 mg/kg doses
Ki (cynomolgus monkey DPP8): 21900 ± 17500 nM

N#C[C@@H]1CCCN1C(=O)CNC12CC3CC(CC(O)(C3)C1)C2 [Vildagliptin, reference compound]
Ki (cynomolgus monkey DPP9): 125 ± 39 nM
